Test results reported in paper PMC5820653, “Detection of a Peptide Biomarker by Engineered Yeast Receptors” (ACS Synthetic Biology, 2018).
Ends that are not written are not given here.

Assays:
[1] = target: T1, Ste2p mutant receptor Cys1H4 (M54I) (Saccharomyces cerevisiae, UniProt D6VTK4, M54I); assay: cell-based; type: cell-based
T1 construct: expressed in transfected cells; host or cells: S. cerevisiae yJB013 (ste2-deleted reporter strain), p416GPD plasmid
Procedure: (§1) Yeast were grown overnight at 30 °C and 225 rpm in 250 mL Erlenmeyer flasks and then diluted to an OD600 = 0.1 in the appropriate medium, typically CSM-Ura or SDCAA-Ura, or commercially sourced pooled human urine. Immediately after dilution, the peptide ligand was added. The culture was incubated for 2.5 h at 30 °C with 225 rpm shaking. Cells were centrifuged at 2000g for 5 min and supernatant was removed. Cells were resuspended in 1x PBS in preparation for flow cytometry.
(§2) Analytical flow cytometry was performed with the BD LSR II (BD Biosciences, San Jose, USA); yEGFP was read on the Alexa-Flour 488 channel, and mKate was read on the PE-Texas Red channel. Receptor output was measured by dividing the mean GFP fluorescence by the mean RFP fluorescence for a population. EC50 values were calculated by fitting the receptor output to a four-parameter logistic curve, and determining which ligand concentration produced an output equivalent to half of the receptor’s maximum output.
(§3) The dose response curves were modeled to fit the following four-parameter logistic curve: [drawing 2] where a is the minimum value, b is the maximum value, c is the EC50, and d is the hill coefficient. The fluorescent receptor output, y, to a given concentration x of ligand, was determined by the following equation: [drawing 3] where GFP is downstream of the receptor pathway and mKate is constitutively expressed (see Strain and Plasmid Construction, Methods Section).
(§4) Data were fit to the Michaelis–Menten equation: [drawing 4] where the fluorescent receptor output, y, to a given concentration x of ligand, was determined by the following equation: [drawing 5] where GFP is downstream of the receptor pathway and mKate is constitutively expressed (see Strain and Plasmid Construction, Methods Section).

[2] = target: T2, Ste2p mutant receptor Cys1H5 (M54I, C59S) (Saccharomyces cerevisiae, UniProt D6VTK4, C59S/M54I); assay: cell-based; type: cell-based
T2 construct: expressed in transfected cells; host or cells: S. cerevisiae yJB013 (ste2-deleted reporter strain), p416GPD plasmid
T2 sequence (D6VTK4 whole entry M54I/C59S): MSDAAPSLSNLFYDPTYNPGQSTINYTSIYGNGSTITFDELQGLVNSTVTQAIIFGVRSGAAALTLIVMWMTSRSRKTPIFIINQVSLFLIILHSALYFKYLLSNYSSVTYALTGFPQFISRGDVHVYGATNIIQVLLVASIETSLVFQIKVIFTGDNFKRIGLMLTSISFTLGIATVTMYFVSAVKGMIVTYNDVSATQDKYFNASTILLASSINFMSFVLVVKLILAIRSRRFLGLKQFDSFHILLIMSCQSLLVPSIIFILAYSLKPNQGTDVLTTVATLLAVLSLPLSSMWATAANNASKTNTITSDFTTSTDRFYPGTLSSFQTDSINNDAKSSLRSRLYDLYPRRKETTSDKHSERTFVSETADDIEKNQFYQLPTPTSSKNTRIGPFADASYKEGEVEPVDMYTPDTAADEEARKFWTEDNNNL
Procedure: as §1, §2, §3, §4

[3] = target: T3, Ste2p mutant receptor Cys5R9 (Saccharomyces cerevisiae, UniProt D6VTK4, K225T/L228F/M218T/M54I/N158F/R74K/S121R/T167R/Y26F); assay: cell-based
T3 construct: expressed in transfected cells; host or cells: S. cerevisiae yJB013 (ste2-deleted reporter strain), p416GPD plasmid
T3 sequence (D6VTK4 1-319 Y26F/M54I/R74K/S121R/N158F/T167R/M218T/K225T/L228F): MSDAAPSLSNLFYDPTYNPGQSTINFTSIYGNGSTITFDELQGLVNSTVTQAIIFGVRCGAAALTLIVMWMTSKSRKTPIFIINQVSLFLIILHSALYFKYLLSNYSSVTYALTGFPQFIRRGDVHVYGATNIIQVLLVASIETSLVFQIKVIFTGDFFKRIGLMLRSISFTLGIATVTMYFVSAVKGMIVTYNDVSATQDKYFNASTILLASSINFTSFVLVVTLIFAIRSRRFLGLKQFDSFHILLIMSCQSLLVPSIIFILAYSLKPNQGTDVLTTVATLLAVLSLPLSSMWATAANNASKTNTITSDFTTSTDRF
Procedure: as §1, §2, §3, §4

[4] = target: T4, Ste2p mutant receptor Cys5R2 (Saccharomyces cerevisiae, UniProt D6VTK4, F55L/K225T/M218T/M54I/N158Y/R74K/Y26F); assay: cell-based
T4 construct: expressed in transfected cells; host or cells: S. cerevisiae yJB013 (ste2-deleted reporter strain), p416GPD plasmid
T4 sequence (D6VTK4 1-319 Y26F/M54I/F55L/R74K/N158Y/M218T/K225T): as the sequence (D6VTK4 1-319 Y26F/M54I/R74K/S121R/N158F/T167R/M218T/K225T/L228F) above, with F55L, R121S, F158Y, R167T, F228L counted along it
Procedure: as §1, §2, §3, §4

[5] = target: T5, Ste2p mutant receptor Cys4L3 (Saccharomyces cerevisiae, UniProt D6VTK4, K225T/M218T/M54I/N158F/R74K/T167R/Y26F); assay: cell-based
T5 construct: expressed in transfected cells; host or cells: S. cerevisiae yJB013 (ste2-deleted reporter strain), p416GPD plasmid
T5 sequence (D6VTK4 1-319 Y26F/M54I/R74K/N158F/T167R/M218T/K225T): as the sequence (D6VTK4 1-319 Y26F/M54I/R74K/S121R/N158F/T167R/M218T/K225T/L228F) above, with R121S, F228L counted along it
Procedure: as §1, §2, §3, §4

[6] = target: T6, Ste2p mutant receptor Cys5R7 (Saccharomyces cerevisiae, UniProt D6VTK4, D3N/K225T/L228F/M218T/M54I/N158Y); assay: cell-based
T6 construct: expressed in transfected cells; host or cells: S. cerevisiae yJB013 (ste2-deleted reporter strain), p416GPD plasmid
T6 sequence (D6VTK4 other isoform, or with tags, fused parts or gaps D3N/M54I/N158Y/M218T/K225T/L228F): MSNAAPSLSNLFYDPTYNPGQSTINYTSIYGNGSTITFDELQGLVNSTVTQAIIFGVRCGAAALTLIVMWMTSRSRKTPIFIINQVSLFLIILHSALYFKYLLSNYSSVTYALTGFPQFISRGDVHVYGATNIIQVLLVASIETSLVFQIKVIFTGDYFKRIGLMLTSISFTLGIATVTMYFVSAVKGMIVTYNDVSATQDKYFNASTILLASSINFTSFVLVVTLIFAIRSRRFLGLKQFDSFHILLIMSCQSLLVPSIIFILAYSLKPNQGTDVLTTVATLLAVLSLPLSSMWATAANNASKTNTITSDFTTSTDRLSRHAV
Procedure: as §1, §2, §3, §4

[7] = target: T7, Ste2p mutant receptor Cys2K3 (Saccharomyces cerevisiae, UniProt D6VTK4, K225T/M218T/M54I/N158Y/S356T); assay: cell-based
T7 construct: expressed in transfected cells; host or cells: S. cerevisiae yJB013 (ste2-deleted reporter strain), p416GPD plasmid
T7 sequence (D6VTK4 whole entry M54I/N158Y/M218T/K225T/S356T): as the sequence (D6VTK4 whole entry M54I/C59S) above, with S59C, N158Y, M218T, K225T, S356T counted along it
Procedure: as §1, §2, §3, §4

[8] = target: T8, Ste2p mutant receptor Cys2K2 (Saccharomyces cerevisiae, UniProt D6VTK4, M218K/M54I/Q272Y); assay: cell-based
T8 construct: expressed in transfected cells; host or cells: S. cerevisiae yJB013 (ste2-deleted reporter strain), p416GPD plasmid
T8 sequence (D6VTK4 whole entry M54I/M218K/Q272Y): as the sequence (D6VTK4 whole entry M54I/C59S) above, with S59C, M218K, Q272Y counted along it
Procedure: as §1, §2, §3, §4

[9] = target: T9, Ste2p (wild type) (Saccharomyces cerevisiae, UniProt D6VTK4); assay: Yeast GFP/RFP reporter response of native receptor Ste2p to peptide ligand (flow cytometry); type: cell-based
T9 construct: expressed in transfected cells; host or cells: S. cerevisiae YJB015 (MPY578t5 ste2::LEU2, fus1::yeGFP, TRP1::mKate) carrying plasmid pJB036
T9 sequence (D6VTK4 1-431): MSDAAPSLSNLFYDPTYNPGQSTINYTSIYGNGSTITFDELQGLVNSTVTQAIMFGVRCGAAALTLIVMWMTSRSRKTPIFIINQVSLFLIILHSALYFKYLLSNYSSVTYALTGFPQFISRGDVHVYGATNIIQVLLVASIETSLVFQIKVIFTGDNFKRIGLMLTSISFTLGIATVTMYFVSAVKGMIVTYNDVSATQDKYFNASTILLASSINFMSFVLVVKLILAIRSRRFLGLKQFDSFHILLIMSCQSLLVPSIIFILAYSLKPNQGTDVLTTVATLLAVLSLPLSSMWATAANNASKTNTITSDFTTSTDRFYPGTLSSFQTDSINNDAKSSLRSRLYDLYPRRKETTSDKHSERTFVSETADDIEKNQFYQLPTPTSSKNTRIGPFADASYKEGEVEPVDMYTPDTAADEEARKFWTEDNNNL
Procedure: as §1
as §2, with “output. […]” for “output.”
as §4

[10] = target: T4, Ste2p mutant receptor Cys5R2; assay: Receptor Cys5R2 response in trypsinized pooled human urine; type: cell-based; settings: 500 μM ligand; pooled human urine digested with trypsin (50% Tryp-LE, 37 °C overnight, boiled); n = 3
Procedure: as §1, §2
(§5) When trypsinized urine was used as the sample matrix, urine was mixed with Tryp-LE Express (Life Technologies, Grand Island, USA) to a final concentration of 50%. Mixtures were incubated at 37 °C overnight. Trypsin was inactivated by boiling the samples at 99 °C for 10 min. Samples were stored at −80 °C until assayed.

[11] = target: T3, Ste2p mutant receptor Cys5R9; assay: Receptor Cys5R9 response in trypsinized pooled human urine; type: cell-based; settings: 500 μM ligand; pooled human urine digested with trypsin (50% Tryp-LE, 37 °C overnight, boiled); n = 3
Procedure: as §1, §2, §5

[12] = target: T6, Ste2p mutant receptor Cys5R7; assay: Receptor Cys5R7 response in trypsinized pooled human urine; type: cell-based; settings: 500 μM ligand; pooled human urine digested with trypsin (50% Tryp-LE, 37 °C overnight, boiled); n = 3
Procedure: as §1, §2, §5

[13] = target: T5, Ste2p mutant receptor Cys4L3; assay: Receptor Cys4L3 response in trypsinized pooled human urine; type: cell-based; settings: 500 μM ligand; pooled human urine digested with trypsin (50% Tryp-LE, 37 °C overnight, boiled); n = 3
Procedure: as §1, §2, §5

[14] = test system: Round 3 Ste2p mutant receptors; assay: Counter-sorting for specificity: round 3 Ste2p mutants evolved for Variant 56; type: cell-based, Saccharomyces cerevisiae; settings: library sorted with 100 nM Variant 56, counter-sorted against 100 nM α-factor; Supplementary Figure 1
Procedure: Specificity can be evolved
Supplementary Figure 1- Receptors can be counter-sorted against alpha-factor to increase specificity towards the target ligand- Variant […]
Variant 56 (sequence: […]), which contains a single-amino acid substitution compared to α-factor. In round 1, error prone PCR was performed on Ste2p to create a library of mutant receptors that were subjected to sorting with 100 nM Variant 56. The best mutant isolated from this sort was re-mutagenized to create a new library. The new library was sorted in round 2 with 100 nM Variant 56, and did show an improvement in detecting Variant 56 (panel a). In round 3, the sorted library from round 2 was screened […]
(also on this page, place not known: 0 1 2 3 4 Ste2p 1 2 Fold Increase Over Inac ve Receptor (GFP/RFP) Var. 56 0 1 2 3 4 Ste2p 1 2 3* Fold Increase Over Inac ve Receptor (GFP/RFP) α-factor 0.0 0.2 0.4 0.6 0.8 1.0 Ste2p 1 2 3* Rela ve Ac va on (Var. 56/α-factor) Rounds of Mutagenesis & Screening (a) (c) (b)) […]
(1 picture or pasted object on this page, not shown here)

T1 sequence (D6VTK4 whole entry M54I): as the sequence (D6VTK4 whole entry M54I/C59S) above, with S59C counted along it

Molecule | EC50 [1] [nM] | EC50 [2] [nM] | EC50 [4] [nM] | EC50 [5] [nM] | EC50 [6] [nM] | EC50 [7] [nM] | EC50 [8] [nM] | other results
HALALKPGEPMY [Cys1] | 141 | 129 | – | – | – | – | – | –
ALDFAVGEPMK-NH2 [Cys5 amidated] | 158000 | 234000 | 4900 | 3470 | 2690 | 6170 | 81300 | EC50 [3]: 3.47 µM
CSCC[C@H](NC(=O)[C@@H]1CCCN1C(=O)[C@H](CCC(N)=O)NC(=O)CNC(=O)[C@@H]1CCCN1C(=O)[C@H](CCCCN)NC(=O)[C@H](CC(C)C)NC(=O)[C@H](CCC(N)=O)NC(=O)[C@H](CC(C)C)NC(=O)[C@H](Cc1c[nH]c2ccccc12)NC(=O)[C@H](Cc1c[nH]cn1)NC(=O)[C@@H](N)Cc1c[nH]c2ccccc12)C(=O)N[C@@H](Cc1ccc(O)cc1)C(N)=O [α-factor amidated, reference compound] | 50.1 | 58.9 | 9.12 | 6.76 | 6.31 | 58.9 | 70.8 | EC50 ([9]; log10 of EC50 in M ± error, 4-parameter logistic fit of GFP/RFP output, 2.5 h, 30 °C, flow cytometry, Supplementary Table 1): 229 nM
ALALKPGEPMY [Cys2] | – | – | – | – | – | 117 | 316 | –
ALDFAVGEYNK-NH2 [Cys7 amidated, C-terminally amidated cystatin C tryptic peptide Cys7] | – | – | – | – | – | – | – | Ligand concentration at which the receptor responds (sensitivity) ([1]; Supplementary Figure 3C legend): 1 mM; Ligand concentration at which the receptor responds (sensitivity) ([2]; Supplementary Figure 3C legend): 1 mM; Detection of ligand in pooled human urine [10]: able to detect; Detection of ligand in pooled human urine [11]: able to detect; Ligand concentration at which the receptor responds (sensitivity) ([9]; as stated in text / figure legend): 1 mM; Detection of ligand in pooled human urine [12]: able to detect; Detection of ligand in pooled human urine [13]: able to detect; Ligand concentration at which the receptor responds (sensitivity) [3]: 500 µM; Ligand concentration at which the receptor responds (sensitivity) [4]: 100 µM; Ligand concentration at which the receptor responds (sensitivity) ([5]; Cys4 value with a new stock of Cys4 peptide): 100 µM; Ligand concentration at which the receptor responds (sensitivity) [6]: 50 µM; Improvement in sensitivity ([6]; receptor Cys5R7 versus Ste2p, same ligand): 20 fold
WHYLQLKPGQPMY [Variant 56, α-factor variant with a single-amino acid substitution] | – | – | – | – | – | – | – | Activation of round 3 mutants (fold increase GFP/RFP; relative activation Var. 56/α-factor) [14]: preferentially activated
